Test results from US20240166652A1, “MODULATORS OF THE INTEGRATED STRESS PATHWAY” (Calico Life Sciences LLC, priority 2017, published 2024).

Each compound was assayed on ATF4 luciferase reporter in HEK293T cells (assay: ATF4-Luc assay (ATF4 luciferase reporter, tunicamycin-treated HEK293T cells)). Conditions: Homo sapiens, HEK-293T; HEK293T cells carrying the ATF4 luciferase reporter, 1 μg/mL tunicamycin, 7 hours.
Format: cell-based, human

SMILES | EC50 [nM]
O=C(COc1cccc(F)c1)NC12CC(NC(=O)COc3ccc(Cl)c(F)c3)(C1)C2 [Compound 410, 2-(4-chloro-3-fluorophenoxy)-N-{3-[2-(3-fluorophenoxy)acetamido]bicyclo[1.1.1]pentan-1-yl}acetamide] | < 10
O=C(COc1ccc(Cl)c(F)c1)NC12CC(NC(=O)COc3ccccc3F)(C1)C2 [Compound 411, 2-(4-chloro-3-fluorophenoxy)-N-{3-[2-(2-fluorophenoxy)acetamido]bicyclo[1.1.1]pentan-1-yl}acetamide] | 10 to 50
COc1cc(Cl)ccc1OCC(=O)NC12CC(NC(=O)COc3ccc(Cl)c(F)c3)(C1)C2 [Compound 412, 2-(4-chloro-3-fluorophenoxy)-N-{3-[2-(4-chloro-2-methoxyphenoxy)acetamido]bicyclo[1.1.1]pentan-1-yl}acetamide] | 50 to 250
CC(O)(c1ccc(OCC(=O)NC23CC(NC(=O)COc4ccc(Cl)c(F)c4)(C2)C3)cc1)C(F)(F)F (centres unmarked) [Compound 413, 2-(4-chloro-3-fluorophenoxy)-N-(3-{2-[4-(1,1,1-trifluoro-2-hydroxypropan-2-yl)phenoxy]acetamido}bicyclo[1.1.1]pentan-1-yl)acetamide] | 250 to 500
O=C(COc1ccc(Cl)c(F)c1)NC12CC(NC(=O)COc3cc(F)c(F)cc3F)(C1)C2 [Compound 414, 2-(4-chloro-3-fluorophenoxy)-N-{3-[2-(2,4,5-trifluorophenoxy)acetamido]bicyclo[1.1.1]pentan-1-yl}acetamide] | < 10
O=C(COc1ccc(Cl)c(F)c1)NC12CC(NC(=O)COc3ccc(OC(F)(F)F)c(F)c3)(C1)C2 [Compound 415, 2-(4-chloro-3-fluorophenoxy)-N-(3-{2-[3-fluoro-4-(trifluoromethoxy)phenoxy]acetamido}bicyclo[1.1.1]pentan-1-yl)acetamide] | < 10
O=C(COc1ccc(Cl)c(F)c1)NC12CC(NC(=O)COc3cc(F)c(F)c(F)c3)(C1)C2 [Compound 416, 2-(4-chloro-3-fluorophenoxy)-N-{3-[2-(3,4,5-trifluorophenoxy)acetamido]bicyclo[1.1.1]pentan-1-yl}acetamide] | < 10
O=C(COc1ccc(Cl)c(F)c1)NC12CC(NC(=O)[C@@H](CO)Oc3ccc(Cl)c(F)c3)(C1)C2 [Compound 418, (2R)-2-(4-chloro-3-fluorophenoxy)-N-{3-[2-(4-chloro-3-fluorophenoxy)acetamido]bicyclo[1.1.1]pentan-1-yl}-3-hydroxypropanamide] | 10 to 50
O=C(COc1ccc(Cl)c(F)c1)NC12CCC(NC(=O)COc3ccc(Cl)c(F)c3)(CC1)[C@@H](c1nn[nH]n1)C2 [Compound 419, N,N′-[(2S)-2-(2H-tetrazol-5-yl)bicyclo[2.2.2]octane-1,4-diyl]bis[2-(4-chloro-3-fluorophenoxy)acetamide]] | 50 to 250
Cc1noc([C@H]2CC3(NC(=O)COc4ccc(Cl)c(F)c4)CCC2(NC(=O)COc2ccc(Cl)c(F)c2)CC3)n1 [Compound 420, N,N′-[(2S)-2-(3-methyl-1,2,4-oxadiazol-5-yl)bicyclo[2.2.2]octane-1,4-diyl]bis[2-(4-chloro-3-fluorophenoxy)acetamide]] | < 10
COCC(Oc1ccc(Cl)c(F)c1)C(=O)NC12CC(NC(=O)COc3ccc(Cl)c(F)c3)(C1)C2 (centres unmarked) [Compound 421, 2-(4-chloro-3-fluorophenoxy)-N-{3-[2-(4-chloro-3-fluorophenoxy)acetamido]bicyclo[1.1.1]pentan-1-yl}-3-methoxypropanamide] | 50 to 250
CC(C)(O)c1ccc(OCC(=O)NC23CC(NC(=O)COc4ccc(Cl)c(Cl)c4)(C2)C3)cc1 [Compound 422, 2-(3,4-dichlorophenoxy)-N-(3-{2-[4-(2-hydroxypropan-2-yl)phenoxy]acetamido}bicyclo[1.1.1]pentan-1-yl)acetamide] | 250 to 500
Cc1cc(CC(=O)NC23CCC(NC(=O)COc4ccc(Cl)c(F)c4)(CC2)C(O)C3)on1 (centres unmarked) [Compound 423, 2-(4-chloro-3-fluorophenoxy)-N-{2-hydroxy-4-[2-(3-methyl-1,2-oxazol-5-yl)acetamido]bicyclo[2.2.2]octan-1-yl}acetamide] | > 2000
O=C(/C=C/c1ccc(OC(F)(F)F)cn1)NC12CCC(NC(=O)COc3ccc(Cl)c(F)c3)(C1)C2 [Compound 425, (2E)-N-{4-[2-(4-chloro-3-fluorophenoxy)acetamido]bicyclo[2.1.1]hexan-1-yl}-3-[5-(trifluoromethoxy)pyridin-2-yl]prop-2-enamide] | 500 to 2000
O=C(COc1ccc(Cl)c(F)c1)NC12CC(NS(=O)(=O)Cc3ccc(C(F)(F)F)cc3)(C1)C2 [Compound 426, 2-(4-chloro-3-fluorophenoxy)-N-[3-({[4-(trifluoromethyl)phenyl]methanesulfonyl}amino)bicyclo[1.1.1]pentan-1-yl]acetamide] | 50 to 250
O=C(COc1ccc(Cl)c(F)c1)NC12CC(NS(=O)(=O)Cc3ccc(Cl)cc3)(C1)C2 [Compound 427, 2-(4-chloro-3-fluorophenoxy)-N-(3-{[(4-chlorophenyl)methanesulfonyl]amino}bicyclo[1.1.1]pentan-1-yl)acetamide] | 500 to 2000

SMILES | EC50 [nM]
O=C(COc1ccc(Cl)c(F)c1)NC12CC(NS(=O)(=O)Cc3cccc(C(F)(F)F)c3)(C1)C2 [Compound 428, 2-(4-chloro-3-fluorophenoxy)-N-[3-({[3-(trifluoromethyl)phenyl]methanesulfonyl}amino)bicyclo[1.1.1]pentan-1-yl]acetamide] | 500 to 2000
O=C(COc1ccc(Cl)c(F)c1)NC12CCC(NS(=O)(=O)Cc3ccc(C(F)(F)F)cc3)(CC1)[C@@H](O)C2 [Compound 429, 2-(4-chloro-3-fluorophenoxy)-N-[(3S)-3-hydroxy-4-({[4-(trifluoromethyl)phenyl]methanesulfonyl}amino)bicyclo[2.2.2]octan-1-yl]acetamide] | 50 to 250
O=C(COc1ccc(Cl)c(F)c1)NC12CCC(NS(=O)(=O)Cc3cccc(C(F)(F)F)c3)(CC1)[C@@H](O)C2 [Compound 430, 2-(4-chloro-3-fluorophenoxy)-N-[(3S)-3-hydroxy-4-({[3-(trifluoromethyl)phenyl]methanesulfonyl}amino)bicyclo[2.2.2]octan-1-yl]acetamide] | 500 to 2000
O=C(COc1ccc(Cl)c(F)c1)NC12CC(NC(=O)Nc3ccc(Cl)cc3)(C1)C2 [Compound 431, 2-(4-chloro-3-fluorophenoxy)-N-(3-{[(4-chlorophenyl)carbamoyl]amino}bicyclo[1.1.1]pentan-1-yl)acetamide] | 50 to 250
O=C(COc1ccc(Cl)c(F)c1)NC12CC(NC(=O)Nc3ccc(Cl)cc3O)(C1)C2 [Compound 432, 2-(4-chloro-3-fluorophenoxy)-N-(3-{[(4-chloro-2-hydroxyphenyl)carbamoyl]amino}bicyclo[1.1.1]pentan-1-yl)acetamide] | 50 to 250
Cc1ccc(OC(=O)NC23CCC(NC(=O)COc4ccc(Cl)c(F)c4)(CC2)CC3O)cc1 (centres unmarked) [Compound 433, 4-methylphenyl {4-[2-(4-chloro-3-fluorophenoxy)acetamido]-2-hydroxybicyclo[2.2.2]octan-1-yl}carbamate] | 50 to 250
O=C(COc1ccc(Cl)c(F)c1)NC12CC(NC(=O)Oc3ccc(Cl)cc3)(C1)C2 [Compound 434, 4-chlorophenyl {3-[2-(4-chloro-3-fluorophenoxy)acetamido]bicyclo[1.1.1]pentan-1-yl}carbamate] | 250 to 500
Cc1ccc(OC(=O)NC23CC(NC(=O)COc4ccc(Cl)c(F)c4)(C2)C3)cc1 [Compound 435, 4-methylphenyl {3-[2-(4-chloro-3-fluorophenoxy)acetamido]bicyclo[1.1.1]pentan-1-yl}carbamate] | 250 to 500
O=C(COc1ccc(Cl)c(F)c1)NC12CCC(NC(=O)Oc3ccc(Cl)cc3)(CC1)C(O)C2 (centres unmarked) [Compound 436, 4-chlorophenyl {4-[2-(4-chloro-3-fluorophenoxy)acetamido]-2-hydroxybicyclo[2.2.2]octan-1-yl}carbamate] | 50 to 250
O=C(COc1ccc(Cl)cc1)NC12CCC(NC(=O)COc3ccc(Cl)c(F)c3)(CC1)[C@@H](O)C2 [Compound 437, 2-(4-chloro-3-fluorophenoxy)-N-{(2S)-4-[2-(4-chlorophenoxy)acetamido]-2-hydroxybicyclo[2.2.2]octan-1-yl}acetamide] | < 10
O=C(COc1ccc(Cl)c(Cl)c1)NC12CCC(NC(=O)COc3ccc(Cl)c(F)c3)(CC1)[C@@H](O)C2 [Compound 438, 2-(4-chloro-3-fluorophenoxy)-N-{(2S)-4-[2-(3,4-dichlorophenoxy)acetamido]-2-hydroxybicyclo[2.2.2]octan-1-yl}acetamide] | < 10
Cc1cc(OC(C)(C)C(=O)NC23CCC(NC(=O)COc4ccc(Cl)c(F)c4)(CC2)C[C@@H]3O)ccc1Cl [Compound 439, N-{(2S)-4-[2-(4-chloro-3-fluorophenoxy)acetamido]-2-hydroxybicyclo[2.2.2]octan-1-yl}-2-(4-chloro-3-methylphenoxy)-2-methylpropanamide] | < 10
O=C(COc1ccc(Cl)c(F)c1)NC12CCC(NC(=O)COc3ccc(Cl)c(F)c3)(CC1)C2 [Compound 440, N,N′-(bicyclo[2.2.1]heptane-1,4-diyl)bis[2-(4-chloro-3-fluorophenoxy)acetamide]] | < 10
NC(=O)C1CC2(NC(=O)COc3ccc(Cl)c(F)c3)CCC1(NC(=O)COc1ccc(Cl)c(F)c1)CC2 (centres unmarked) [Compound 441, 1,4-bis[2-(4-chloro-3-fluorophenoxy)acetamido]bicyclo[2.2.2]octane-2-carboxamide] | 10 to 50
Cc1ccc(OCC(=O)NC23CCC(NC(=O)COc4ccc(C)cc4)(CC2)[C@@H](O)C3)cc1 [Compound 442, N,N′-[(2S)-2-hydroxybicyclo[2.2.2]octane-1,4-diyl]bis[2-(4-methylphenoxy)acetamide]] | < 10
Cc1ccc(OCC(=O)NC23CCC(NC(=O)COc4ccc(C)c(C)c4)(CC2)[C@@H](O)C3)cc1C [Compound 443, N,N′-[(2S)-2-hydroxybicyclo[2.2.2]octane-1,4-diyl]bis[2-(3,4-dimethylphenoxy)acetamide]] | < 10
